Reference: the NIST ThermoML archive (doi:10.1016/j.tca.2017.07.001)
“And” between values parts separate entries of the source, which are not always exact repeats. Equal values may be shown once.

Settings: Liquid, Transpiration method

CC(C)(C)[N+](=O)[O-] [2-methyl-2-nitropropane]
Settings	vapor or sublimation pressure [kPa]
299.3 K	2.054
303.2 K	2.553
304.2 K	2.705
308.2 K	3.261
309.2 K	3.527
313.2 K	4.205
314.2 K	4.41
318.2 K	5.269
323.2 K	6.65
328.1 K	8.479

CC(C)[N+](=O)[O-] [2-nitropropane]
Settings	vapor or sublimation pressure
274.7 K	0.609 kPa
274.8 K	0.604 kPa and 0.597 kPa
279.5 K	0.799 kPa
279.6 K	0.827 kPa
284.4 K	1.092 kPa and 1.091 kPa
289.3 K	1.459 kPa
294.2 K	1.953 kPa
294.3 K	1.9 kPa
299.2 K	2.574 kPa
304.1 K	3.344 kPa
304.2 K	3.336 kPa
309.1 K	4.299 kPa
314.1 K	5.612 kPa and 5.563 kPa
